Assay [1] deals with enthesitis in PsA patients. Briefly: Phase 2 clinical study NCT03101670, enthesitis by SPARCC Enthesitis Index. As to conditions: human, in vivo. The method, then: As used herein, the term ‘SPARCC Enthesitis Index’ refers to a clinical scoring after examination of (entheseal) tenderness at 16 peripheral sites, which are evaluated for tenderness by palpation, and scored 0 (non-tender) or 1 (tender). The total enthesitis score is the sum of all site scores and is maximally 16. The higher the score, the higher the enthesitis burden. (Maksymowych W P et al. Development and validation of the Spondyloarthritis Research Consortium of Canada (SPARCC) Enthesitis Index. Ann Rheum Dis 2009; 68:948-53)
(§1) This is a multicenter, Phase 2, double-blind, placebo-controlled study in subjects with moderately to severely active PsA who have an inadequate response or are intolerant to conventional disease-modifying therapy. […] Randomization to treatment groups are stratified by current cDMARD use (yes or no) and prior anti-TNF pharmaceutical use (yes or no).
Enthesitis is assessed using the SPARCC Enthesitis Index. Sixteen body sites is evaluated for tenderness by palpation, and scored with 0 (non-tender) or 1 (tender). The total enthesitis score is the sum of all site scores and is maximally 16. The higher the score, the higher the enthesitis burden.
Enthesitis is assessed using the SPARCC Enthesitis Index and Leeds Enthesitis Index (LEI). The Enthesitis parameters are analyzed only in the subpopulation of subjects who have enthesitis at baseline (LEI >0). […]

Assay [2] has as its system psoriasis in PsA subjects with ≥3% BSA at baseline. Briefly: Phase 2 clinical study NCT03101670, psoriasis (PASI). The class given is in vivo, human. The following applies: 200 mg q.d.
Description: As used herein, the term ‘PASI’ refers to the Psoriasis Area and Severity Index score and is an index used to express the severity of psoriasis. It combines the severity (erythema, induration and desquamation) and percentage of affected area. Further details on the determination of PASI is provided in example 1. The PASI score represents the change from baseline. ‘PASI50’ refers to the portion of patients who achieved 50% improvement in the PASI score upon the tested treatment. ‘PASI75’ refers to the portion of patients who achieved 75% improvement in the PASI score upon the tested treatment. ‘PASI90’ refers to the portion of patients who achieved 90% improvement in the PASI score upon the tested treatment.
as §1
The PASI score is used to measure the severity and extent of psoriasis. Representative area of psoriasis is selected for each body region (head, arms, trunk and legs). The intensity of erythema, induration and desquamation of the psoriasis is assessed as none (0), mild (1), moderate (2), severe (3) or very severe (4).
A numerical score, ranging from 0 to 100%, will be used to measure the proportion of the subject's total BSA involved with psoriasis, as assessed by the investigator.
Four sites of affection, the head (h), upper limb (u), trunk (t) and lower limbs (l), are separately scored by using 3 parameters, erythema (E), induration (I) and desquamation (D), each of which is graded on a severity scale of 0 to 4 (0=none, 1=mild, 2=moderate, 3=severe and 4=very severe) (Section 1.4.6). The area-wise percentage involvement of the involved sites is calculated as: 1=less than 10% area; 2=10-29%; 3=30-49%; 4=50-69%; 5=70-89%; and 6=more than 90%. The final formula for PASI score is: PASI=0.1×(Eh+Ih+Dh)×Ah+0.2×(Eu+Iu+Du)×Au+0.3×(Et+It+Dt)×At+0.4×(El+Il+Dl)×Al
The total PASI score ranges between 0 (no disease) and 72 (maximal disease), but is considered unreliable when BSA <3%. Therefore, the PASI is only analysed in the subpopulation of subjects with psoriasis involving ≥3% BSA at baseline.
The following PASI parameters can be derived: • PASI change from baseline • PASI 50% improvement (PASI50) • PASI 75% improvement (PASI75) • PASI 90% improvement (PASI90) • PASI 100% improvement or complete resolution of all disease (PASI100)

For assay [3], the system named is moderately to severely active PsA. Kind of assay: Phase 2 clinical study NCT03101670, physical function (HAQ-DI). As to conditions: 200 mg q.d. It is filed as in vivo, human. From the text:
As used herein, the term 'HAQ-ID' refers to the Health Assessment Questionnaire […] Disability Index, which is a measure for the physical functioning of a patient. The HAQ-DI is a 20-question instrument assessing the degree of difficulty a person has in accomplishing tasks in 8 function areas (B. Bruce and J. Fries, “The Stanford Health Assessment Questionnaire: dimensions and practical applications,” Health Qual Life Outcomes, p. 1:20, 2003). The HAQ-DI total score ranges from 0 to 3 with higher scores indicating greater dysfunction. This is a multicenter, Phase 2, double-blind, placebo-controlled study in subjects with moderately to severely active PsA who have an inadequate response or are intolerant to conventional disease-modifying therapy. […] Randomization to treatment groups are stratified by current […] use (yes or no) and prior anti-TNF pharmaceutical use (yes or no). The HAQ-DI is used to monitor the subject's self-assessed physical function or disability. This 20-question instrument assesses the degree of difficulty a person has in accomplishing tasks in 8 function areas (getting dressed, arising, eating, walking, […], hygiene, reaching, gripping, errands and chores). Responses are scored on a 4-point Likert scale from 0, indicating no difficulty, to 3, indicating inability to perform a task in that area. The need for aids/devices or help from another person is also recorded. The HAQ-DI total score ranges from 0 to 3 with higher scores indicating greater dysfunction. HAQ-DI is scored on a scale from 0 to 3 and changes from baseline are reported. A decrease by at least 0.22 points versus the baseline is considered clinically meaningful.

Setting [4] is: W12, subjects with ≥3% BSA at baseline.
Setting [5] is: W16, subjects with ≥3% BSA at baseline.

As to `O=C(Nc1nc2cccc(-c3ccc(CN4CCS(=O)(=O)CC4)cc3)n2n1)C1CC1` [compound I, cyclopropanecarboxylic acid {5-[4-(1,1-dioxo-thiomorpholin-4-ylmethyl)-phenyl]-[1,2,4]triazolo[1,5-a]pyridin-2yl}-amide], the “effect on enthesitis compared with placebo” value in assay [1] is “improved enthesitis compared with placebo”. For the same molecule, the PASI75 in assay [2] (setting [4]) turned out to be 33.3%; in assay [2] (setting [5]), 45.2%. Also, the PASI mean cfb in assay [2] (setting [4]) was −5.5; in assay [2] (setting [5]) it was −6.3. In addition, the “HAQ-DI (change from baseline)” value in assay [3] (Week 1) is −0.19; in assay [3] (Week 2) it was −0.30; in assay [3] (Week 4), −0.44; in assay [3] (Week 8) it was −0.50; in assay [3] (Week 12), −0.53; in assay [3] (Week 16), −0.57.

(Values after patent US12329758B2, “Methods for the treatment of psoriatic arthritis” (Alfasigma S.p.A., priority 2018, dated 2025).)
